Where two headings read alike, the source gives them in different places. Where a SMILES comes first, the peptide text is derived from it.

The target in data set [1] is recombinant human fibroblast activation protein (FAP) (Homo sapiens (Human), UniProt Q12884). Description: In vitro IC50 assay, fibroblast activation protein (Example 15). Format: biochemical. As for the experimental part:
(§1) The purpose of this assay is to determine the IC50 of various inhibitors against recombinant human dipeptidyl peptidase IV (DPPIV), fibroblast activation protein (FAP) or prolyl oligopeptidase (PREP).
(§2) The assays are conducted in the following steps: • 1 Dissolve the compound in DMSO to a final concentration of 100 mM. From this, prepare a 1 mM stock at pH 7.5 in 50 mM Tris, 140 mM NaCl Buffer (FAP)/pH 7.5 in 25 mM Tris, 250 mM NaCl Buffer/pH 8.0 140 mM NaCl Buffer (PREP). • 2. Serial dilute (1:10) the 1 mM compound stocks prepared previously into the appropriate assay buffer (FAP: 50 mM Tris, 140 mM NaCl, pH 7.5/PREP: 25 mM Tris, 0.25 M NaCl, pH 7.5/DPPIV: 25 mM Tris, pH 8.0) to one row of a 96-well plate. • 3. […] Dilute the enzymes into their appropriate assay buffers. The final enzyme concentrations should be 0.1, 1.2, and 0.6 nM for DPPIV, FAP and PREP respectively. Add 180 μL to each well needed in columns 2-10. Column 1 (A,B,C) should be prepared with 200 ul of appropriate assay buffer as control. Column 1 (D,E,F,G,H) should be prepared with 20 ul of appropriate assay buffer and 180 ul enzyme as no inhibitor control. • 5. Add 20 μL of the compound of interest from the dilution plate prepared in step 2 to columns 2-10 of the assay plate where appropriate. Each sample should be tested in triplicate. Allow this to incubate for 10 minutes at room temperature, shaking the plate for the first two minutes. • 6. Add 10 μL of 20× substrate prepared in step 3 to each well and allow this to incubate for 15 minutes at room temperature, shaking the plate for the first two minutes. • 7. Read the fluorescence at λex: 380, λem: 460. (DPcore=[dAla|dSerGly]-[boroPro|Pro-nitrile], XXaa=alpha-amino acid)

The target in a further data set is recombinant human FAP (Homo sapiens (Human), UniProt Q12884). Description: In vitro enzyme IC50 assay, FAP (Example 10). Type of data set: biochemical. Conditions: 10 min preincubation at 25° C., Z-Gly-Pro-AMC. How it is done:
Biological Materials: For the in vitro IC50 determination assays, recombinant human DPPIV, DPP9, FAP, and PREP were purchased from R&D Systems, and DPP8 was from Biomol International. Buffer systems used were A (25 mM Tris, pH 8.0), B (50 mM Tris, pH 7.5), C (50 mM Tris, 140 mM NaCl, pH 7.5), D (25 mM Tris, 250 mM NaCl, pH 7.5), and E (20 mM Tris, 20 mM KCl, pH 7.4). […] Substrate Specificity Assay. Peptide libraries (0.21 mM) were incubated for 24 h with 1 nM FAP in buffer E at 37° C. The reaction was quenched by the addition of 1.2 N HCl. The samples were analyzed by reverse-phase HPLC-MS on a Thermo Finnigan LCQ Duo, quantifying the peaks in the resulting base peak chromatograms. Relative cleavage values were determined by comparing the postquench abundance of intact peptides to those in the initial library.
In Vitro Enzyme IC50 Assays. Enzymatic activity of DPPIV, DPP8, DPP9, FAP, and PREP was measured at 25° C. on a Molecular Devices M2e multidetection microtiter plate reader, monitoring the fluorescence at an excitation wavelength of 380 nm and an emission wavelength of 460 nm. The substrate was either H-Gly-Pro-AMC for the DPPIV, DPP8, and DPP9 assays or Z-Gly-Pro-AMC for the FAP and PREP assays. The reaction mixture contained […], enzyme, buffer A (DPPIV and DPP9), buffer B (DPP8), buffer C (FAP), or buffer D (PREP) and a suitable amount of inhibitor (ranging between 10-4 and 10-11 M) in a total volume of 210 μL. The final enzyme concentrations were 0.1, 0.8, 0.4, 1.2, and 0.6 nM for DPPIV, DPP8, DPP9, FAP, and PREP, respectively. […] Those prepared in pH 2.0 solution were preincubated at 25° C. for 4 h prior to dilution. Immediately prior to the commencement of the experiment, the 100 mM stocks were further diluted to 10−3 M in the appropriate assay buffer, from which 1:10 serial dilutions were prepared. All inhibitors were tested in triplicate.

Data set [2] in a line: Stability in aqueous solution of pH about 3. Particulars: during HPLC purification and subsequent lyophilization.
Data set [3] is described as follows: Solubility in water after lyophilization.
For data set [4], the target named is recombinant human dipeptidyl peptidase IV (DPPIV) (Homo sapiens (Human), UniProt P27487). Description: In vitro IC50 assay, dipeptidyl peptidase IV (Example 15). Type of data set: biochemical. Conditions: Gly-Pro-AMC, room temperature. How it is done: as §1, §2
Chain of recombinant human dipeptidyl peptidase IV (DPPIV) (P27487 whole entry): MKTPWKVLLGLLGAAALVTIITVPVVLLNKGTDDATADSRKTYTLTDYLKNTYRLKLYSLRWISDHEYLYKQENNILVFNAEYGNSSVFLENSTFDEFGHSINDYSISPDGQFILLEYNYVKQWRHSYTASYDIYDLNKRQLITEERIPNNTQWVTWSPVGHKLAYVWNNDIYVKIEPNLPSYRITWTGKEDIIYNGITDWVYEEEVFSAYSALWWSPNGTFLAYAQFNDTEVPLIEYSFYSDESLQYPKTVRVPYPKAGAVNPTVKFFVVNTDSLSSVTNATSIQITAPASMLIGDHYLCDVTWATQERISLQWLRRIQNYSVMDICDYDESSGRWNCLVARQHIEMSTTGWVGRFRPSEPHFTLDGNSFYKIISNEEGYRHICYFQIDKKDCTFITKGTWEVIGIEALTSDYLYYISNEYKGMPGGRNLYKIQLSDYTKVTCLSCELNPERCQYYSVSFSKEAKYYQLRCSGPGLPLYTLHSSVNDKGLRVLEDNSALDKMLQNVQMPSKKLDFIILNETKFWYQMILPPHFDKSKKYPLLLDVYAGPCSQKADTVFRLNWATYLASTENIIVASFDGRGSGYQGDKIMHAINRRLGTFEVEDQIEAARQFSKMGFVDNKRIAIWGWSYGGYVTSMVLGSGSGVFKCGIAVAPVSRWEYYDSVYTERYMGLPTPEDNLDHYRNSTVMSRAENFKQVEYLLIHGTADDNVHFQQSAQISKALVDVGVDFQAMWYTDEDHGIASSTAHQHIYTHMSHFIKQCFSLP
For data set [5], the target named is recombinant human prolyl oligopeptidase (PREP) (Homo sapiens (Human), UniProt P48147). Briefly: In vitro IC50 assay, prolyl oligopeptidase (Example 15). Type of data set: biochemical. Particulars: Z-Gly-Pro-AMC, room temperature; read-out: PREP IC50. As for the experimental part:
as §1, §2

Where [6] appears, read: Z-Gly-Pro-AMC, room temperature, read-out: FAP IC50.

Chain of recombinant human fibroblast activation protein (FAP) (Q12884 whole entry): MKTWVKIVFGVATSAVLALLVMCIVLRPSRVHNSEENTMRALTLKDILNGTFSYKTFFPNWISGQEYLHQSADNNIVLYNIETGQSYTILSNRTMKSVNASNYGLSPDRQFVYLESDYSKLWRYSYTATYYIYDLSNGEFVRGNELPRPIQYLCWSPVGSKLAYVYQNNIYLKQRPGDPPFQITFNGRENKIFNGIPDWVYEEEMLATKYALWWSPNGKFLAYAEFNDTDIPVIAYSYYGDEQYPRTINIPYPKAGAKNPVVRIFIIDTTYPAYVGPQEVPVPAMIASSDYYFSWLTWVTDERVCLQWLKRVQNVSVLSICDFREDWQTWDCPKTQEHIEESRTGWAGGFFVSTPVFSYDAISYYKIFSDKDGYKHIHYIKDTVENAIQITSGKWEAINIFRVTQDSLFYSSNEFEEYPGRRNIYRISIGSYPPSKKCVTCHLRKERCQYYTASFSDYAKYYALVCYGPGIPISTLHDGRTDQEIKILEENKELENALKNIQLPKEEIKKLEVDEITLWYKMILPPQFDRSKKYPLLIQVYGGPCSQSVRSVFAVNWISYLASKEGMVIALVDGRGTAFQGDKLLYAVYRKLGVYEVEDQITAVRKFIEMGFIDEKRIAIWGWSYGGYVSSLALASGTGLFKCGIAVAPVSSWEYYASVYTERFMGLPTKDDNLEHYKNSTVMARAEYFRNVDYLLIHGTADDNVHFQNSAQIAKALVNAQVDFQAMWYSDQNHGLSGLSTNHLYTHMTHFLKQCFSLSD
Chain of recombinant human FAP (Q12884 whole entry): as above
Chain of recombinant human prolyl oligopeptidase (PREP) (P48147 whole entry): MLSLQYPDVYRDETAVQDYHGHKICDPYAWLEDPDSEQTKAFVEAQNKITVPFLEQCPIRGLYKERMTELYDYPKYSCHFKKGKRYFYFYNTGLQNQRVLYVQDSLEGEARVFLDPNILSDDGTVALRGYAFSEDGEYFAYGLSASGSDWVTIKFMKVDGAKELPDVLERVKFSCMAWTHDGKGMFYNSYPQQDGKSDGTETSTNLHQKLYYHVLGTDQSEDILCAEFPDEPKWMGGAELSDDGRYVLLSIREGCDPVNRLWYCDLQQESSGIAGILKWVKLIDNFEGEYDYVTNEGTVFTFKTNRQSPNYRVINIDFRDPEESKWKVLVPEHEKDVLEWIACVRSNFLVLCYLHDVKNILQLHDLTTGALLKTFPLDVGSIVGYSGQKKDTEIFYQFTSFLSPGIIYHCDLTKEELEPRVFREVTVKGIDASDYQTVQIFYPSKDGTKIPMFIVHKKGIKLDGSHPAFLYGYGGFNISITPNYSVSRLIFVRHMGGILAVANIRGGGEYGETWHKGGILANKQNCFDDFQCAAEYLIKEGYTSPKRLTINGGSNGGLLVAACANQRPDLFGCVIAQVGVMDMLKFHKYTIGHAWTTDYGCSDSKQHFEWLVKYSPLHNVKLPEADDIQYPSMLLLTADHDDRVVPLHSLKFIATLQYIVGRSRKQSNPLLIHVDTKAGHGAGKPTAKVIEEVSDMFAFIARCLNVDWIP

The term IC50 denotes the midpoint of a concentration-inhibition curve. Turning to `CC(C)[C@H](NC(=O)CNC(=O)CNC(=O)CN1CCN2CCN(CC(=O)O)CCN(CC1)CC(=O)[O][Cu][O]C(=O)C2)C(=O)N[C@H](C)C(=O)N1CCC[C@H]1B(O)O` [Compound 6522CU, DOTA[(Cu(II)]-Gly-Gly-Val-D-Ala-boroPro] (HELM PEPTIDE1{[O=C(O)CN1CCN2CCN(CC(=O)[*:2])CCN(CC1)CC(=O)[O][Cu][O]C(=O)C2].G.G.V.[dA].[OB(O)[C@@H]1CCCN1[*:1]]}$$$$V2.0), the concentration for half-maximal inhibition (IC50) in data set [1] (setting [6]) is 3.5 nM; on recombinant human FAP, 8.7 nM.

As usually defined, the solubility is the concentration that dissolves in the medium under given conditions. `C[C@@H](NC(=O)[C@H]1CC[C@H](CNC(=O)CN2CCN3CCN4CCN(CC2)CC(=O)[O][Ga]([O]C(=O)C3)[O]C(=O)C4)CC1)C(=O)N1CCC[C@H]1B(O)O` [Compound 6952GA, DOTA(Ga)-TXA-D-alaboroPro]: the “degradation in aqueous solution” value in data set [2] was “did not observe any sign of degradation”. In data set [3], this compound showed a solubility of more than 50 mg/mL.

Consider “DOTA[Cu(II)]-EACA-HyBz-D-Ala-boroPro [Compound 6486]”, for which the 50% inhibitory concentration (IC50) (in data set [1] (setting [6]); on recombinant human FAP) was 2.8 nM throughout.

`C[C@@H](NC(=O)CNC(=O)CN1CCN(CC(=O)O)CCN(CC(=O)O)CCN(CC(=O)O)CC1)C(=O)N1CCC[C@H]1B(O)O` [Compound 6512, DOTA-Gly-D-Ala-boroPro]: at recombinant human FAP, the half-maximal inhibitory concentration (IC50) came to 73.1 nM.

Regarding `C[C@@H](NC(=O)[C@H](CO)NC(=O)CN1CCN2CCN(CC(=O)O)CCN(CC1)CC(=O)[O][Cu][O]C(=O)C2)C(=O)N1CCC[C@H]1B(O)O` [Compound 6509CU, DOTA[(Cu(II)]-Ser-D-Ala-boroPro], the IC50 (in data set [1] (setting [6]); at recombinant human FAP) was 128 nM throughout.

Regarding `C[C@@H](NC(=O)c1ccc(CNC(=O)CN2CCN3CCN4CCN(CC2)CC(=O)[O][Lu]([O]C(=O)C3)[O]C(=O)C4)cc1)C(=O)N1CCC[C@H]1B(O)O` [Compound 6555LU], the “degradation in aqueous solution” value in data set [2] was “did not observe any sign of degradation”. For the same compound, the IC50 in data set [4] is more than 100000 nM. In data set [3], this compound yielded a solubility of more than 50 mg/mL.

In the case of `C[C@@H](NC(=O)c1ccc(CNC(=O)CN2CCN3CCN4CCN(CC2)CC(=O)[O][Ga]([O]C(=O)C3)[O]C(=O)C4)cc1)C(=O)N1CCC[C@H]1B(O)O` [Compound 6555GA], the “degradation in aqueous solution” value in data set [2] is on record as “did not observe any sign of degradation”. Besides, the IC50 in data set [4] is more than 100000 nM. In data set [3], the solubility is more than 50 mg/mL.

As for `CC(C)[C@H](NC(=O)CN1CCN(CC(=O)O)CCN(CC(=O)O)CCN(CC(=O)O)CC1)C(=O)N[C@H](C)C(=O)N1CCC[C@H]1B(O)O` [Compound 6508, DOTA-Val-DAla-boroPro], at recombinant human FAP, the 50% inhibitory concentration (IC50) amounted to 62 nM.

As to `C[C@@H](NC(=O)[C@H]1CC[C@H](CNC(=O)CN2CCN3CCN4CCN(CC2)CC(=O)[O][Lu]([O]C(=O)C3)[O]C(=O)C4)CC1)C(=O)N1CCC[C@H]1B(O)O` [Compound 6952LU, DOTA(Lu)-TXA-D-alaboroPro], the “degradation in aqueous solution” value in data set [2] is “did not observe any sign of degradation”. Also, in data set [4], the half-inhibitory concentration (IC50) is more than 100000 nM. Also, the solubility in data set [3] is more than 50 mg/mL.

On to `C[C@@H](NC(=O)c1ccc(CNC(=O)CN2CCN(CC(=O)O)CCN(CC(=O)O)CCN(CC(=O)O)CC2)cc1)C(=O)N1CCC[C@H]1B(O)O` [Compound 6555, DOTA-aminomethyl-Bz-D-Ala-boroPro], for which the “degradation in aqueous solution” value in data set [2] is given as “did not observe any sign of degradation”. Also, in data set [4], the IC50 is more than 100000 nM. Besides, in data set [3], the solubility is more than 50 mg/mL.

Take `CC(C)[C@H](NC(=O)CNC(=O)CNC(=O)CN1CCN(CC(=O)O)CCN(CC(=O)O)CCN(CC(=O)O)CC1)C(=O)N[C@H](C)C(=O)N1CCC[C@H]1B(O)O` [Compound 6522L, DOTA-Gly-Gly-Val-alaboroPro(L-ala)] (HELM PEPTIDE1{[O=C(O)CN1CCN(CC(=O)O)CCN(CC(=O)[*:2])CCN(CC(=O)O)CC1].G.G.V.[dA].[OB(O)[C@@H]1CCCN1[*:1]]}$$$$V2.0): the results for the IC50 in data set [4], in data set [1] and in data set [5] were 3400 nM, more than 100000 nM and 7.6 nM, respectively.

Take “(R)-DOTAGA(Ga)-Gly-Val-Dala-boroPro [Compound 6795DGA]”: the IC50 in data set [4] is more than 100000 nM; in data set [1] (setting [6]) it was 310 nM; in data set [5] it was 9400 nM.

`C[C@H](NC(=O)CN1CCN(CC(=O)O)CCN(CC(=O)O)CCN(CC(=O)O)CC1)C(=O)N[C@H](C)C(=O)N1CCC[C@H]1B(O)O` [Compound 6511, DOTA-Ala-D-Ala-boroPro]: the IC50 at recombinant human FAP came to 71.7 nM.

Regarding `C[C@@H](NC(=O)c1ccc(NNC(=O)CCCNC(=O)CN2CCN3CCN4CCN(CC2)CC(=O)[O][Gd]([O]C(=O)C3)[O]C(=O)C4)cc1)C(=O)N1CCC[C@H]1B(O)O` [Compound 6489Gd, DOTA[Gd]-GABA-HyBz-D-Ala-boroPro], the half-maximal inhibitory concentration (IC50) on recombinant human FAP is 1.1 nM.

These data come from patent US11707539B2, “FAP-targeted radiopharmaceuticals and imaging agents, and uses related thereto” (Trustees of Tufts College, priority 2020, dated 2023).
